Source: patent US8088822B2, “Use of fenretinide or bioactive derivatives thereof and pharmaceutical compositions comprising the same” (priority 2008, dated 2012)
Read-outs that look alike come from different tables or passages of the source.

What was measured:
CML CD34+ cells = assay: Colony forming assay in primary CML CD34+ cells; format: cell-based, human; conditions: 14 days; for inhibition at 2 µM / inhibition at 4 µM: Homo sapiens, 336 h; for inhibition at 2 µM: 2 μM fenretinide; for inhibition at 4 µM: 4 μM fenretinide
Source text: Fresh bone marrow (BM) cells were obtained from 38 patients with CML and 5 non-leukemic donors, 25 AML, 17 ALL, and 8 normal specimens with informed consent according to the Declaration of Helsinki. Approval was obtained from Institutional Review Board at the School of Medicine in Shanghai Jiao Tong University. BM mononuclear cells were isolated by Ficoll density gradient centrifugation (Shanghai Second Reagent Factory, Shanghai, China). CD34^+ Cell were selected using EasySep® Human CD34 Positive Selection kit (Stem Cell Technologies, Vancouver, BC, Canada) according to the manufacturer's instructions. […] The CD34^+ cells were cultured in a serum-free medium (StemPro 34; Gibco BRL, Gaithersburg, Md.) supplemented with growth factors (PeproTech, London, United Kingdom) (20). The growth factors consisted of GM-CSF (200 pg/mL), G-CSF (1 ng/mL); SCF (200 pg/mL); LIF (50 pg/mL), MIP-1α (200 pg/mL) and IL-6 (1 ng/mL).
A quantity of 1000 CD34^+ cells were plated in semisolid methylcellulose-based media (Methocult H4434: Stem Cell Technologies, Vancouver, BC, Canada). After incubation at 37° C. in a fully humidified atmosphere of 5% CO2 for 14 days, granulocyte macrophage-colony-forming units (CFU-GM), erythroid burst-forming units (BFU-E), granulocyte, erythrocyte and monocyte, megakaryocyte-colony-forming units (CUF-GEMM) were counted. Only clusters with >50 cells were counted as a colony.
We further performed study to examine the effects of fenretinide on colony forming in primary CML cells derived from 38 bone marrow specimens of CML patients (TABLE 1). First, CML CD34^+ Cells were isolated using EasySep® Human CD34 Positive Selection kit (Stem Cell Technologies, Vancouver, BC, Canada). Upon treated with 2 μM and 4 μM fenretinide, colony forming assays were performed respectively on granulocyte macrophage-colony-forming units (CFU-GM), erythroid burst-forming units (BFU-E), granulocyte, erythrocyte and monocyte, megakaryocyte-colony-forming units (CFU-GEMM).

[1] = tested on: CD34+CD38− acute leukemia stem and CD34+CD38+ progenitor population; assay: Apoptosis of acute leukemia (AML and ALL) stem and progenitor subpopulations; format: cell-based, human; conditions: AML and ALL specimens
Experimental: Primitive AML and CML subpopulations (CD34^+ cells) were identified using CD34-PE in combination with CD38-APC, and followed by double-labeling with 7AAD and Annexin V antibodies for apoptosis assessment. The CD34^+ cells were first stained with antibodies against the surface markers CD34-PE and CD38-APC (Beckman Coulter, Fullerton, Calif.) and incubated at room temperature for 15 minutes. Cells were then washed with cold PBS and resuspended in 200 μL annexin V 1×binding buffer (10 mM HEPES/NaOH, pH 7.4, 140 mM NaCl, 2.5 mM CaCl2), 5 μL AnnexinV-FITC (BD Phanningen, San Diego, Calif.) and 7-aminoactinomycin (7-AAD, 0.25 mg/mL) (Molecular Probes, Eugene, Oreg.). Subsequently, the samples were incubated at room temperature for 15 minutes and analyzed by flow cytometry.
Furthermore, we examined whether fenretinide can preferentially target highly quiescent LSCs with CD34^+CD38^− immunophenotyte and leukemia progenitor cells with CD34^+CD38^+ for AML and most ALL specimens. Due to the difficulty of obtaining adequate normal CD34^+CD38^− cells, our apoptosis data of normal specimens came from CD34^− cell populations. Also, we used Ara-C and VCR (vincristine) as controls to test the apoptosis of leukemia stem cells, which were thought to be resistant to these chemotherapeutics.

U937 [2] = assay: Growth inhibition and combination index in AML cell line U937; format: cell-based; conditions: U937, single agent
Experimental: The combination Index (CI) was used to test the combination effect of fenretinide and Ara-C on growth inhibition in AML cell line U937. The CI was calculated according to the classic isobologram equation: CI=d1/D1+d2/D2. In this equation, D1 and D2 represent the doses of drug 1 and drug 2 alone, required to produce x % effect, and d1 and d2 are the doses of drugs 1 and 2 in combination required to produce the same effect. And CI<1, CI>1 and CI=1 represent the synergism, […], respectively.

U937 [3] = assay: Apoptosis in AML cell line U937; format: cell-based; conditions: U937, within 48 hours, alone or combined
Experimental: 2×10^5 cultured cells were used for evaluating apoptosis using an ApoAlert Annexin V-FITC Apoptosis Kit (BD Biosciences). Cells were washed once by PBS, resuspended in 200 μl Annexin-V binding buffer, and then stained with Annexin V-FITC 5 μl, PI 10 μl for 15 min at room temperature in the dark. Cells were subsequently analyzed by flow cytometry.
There are two observations that drive us in further exploring alternative therapeutic combinations. As illustrated in Example 6, proteasome inhibitors can potentate fenretinide-induced apoptosis in leukemia. […] The apoptosis rates were quite low when treated alone within 48 hours (nearly 5%), and the number doubled when treated by fenretinide and MG132.

MKN45 = assay: Apoptosis in gastric tumor cell line MKN45 (Rh123/PI, FACS); format: cell-based; conditions: MKN45, 48 hours; 4 μM fenretinide, 5 μM Tet, alone or co-treatment
Experimental: Loss of MTP was evaluated through rhodamine 123 (Rh123) and propidium iodide (PI) staining. 2×10^5 cells were washed by PBS and incubated with 1 μg/ml Rh123 at 37° C. for 30 min. After washed by PBS, 10 μl PI was added to cells for 15 min at room temperature in the dark. Fluorescence emission at 530 nm (representing R123 retention as a function of MTP) was measured with flow cytometry.
Fenretinide induces intracellular ROS and ER stress to activate series of molecular events including apoptotic pathway and such anti-apoptotic pathways as NF-κB cascade. NF-κB can mediate the progression of inflammation-related cancer. […] Unlike fenretinide, Tet is the well-known anti-cancer and anti-inflammation drugs via inhibiting the activity of NF-κB. For example, Tet, as the main effective component of Stephenia tetrandra S Moore, has bioactivities in reversing MDR (multidrug resistance), blocking calcium ion channel and so on. […] FIGS. 19A and 19B show synergistic induction of apoptosis by fenretinide and Tet, as evaluated by Rh123/PI double stain using FACS. […] Through annexin-V/PI double staining, synergistic apoptosis profiles of fenretinide/tetrandrine co-treated MKN45 and SGC7901 cells were also observed (see FIGS. 19C and 19D).

[4] = read-out: inhibition of BFU-E number
[5] = CFU-GM, read-out: inhibition of CFU-GM number

## CC1=C(/C=C/C(C)=C/C=C/C(C)=C/C(=O)Nc2ccc(O)cc2)C(C)(C)CCC1 [fenretinide, N-(4-hydroxyphenyl)retinamide]
CML CD34+ cells; [4]
  inhibition at 2 µM: 24%
  inhibition at 4 µM: 66%
CML CD34+ cells; [5]
  inhibition at 2 µM: 19%
  inhibition at 4 µM: 36 ± 9%
CML CD34+ cells; fenretinide 2 μM and 4 μM
  GFU-GEMM formed by the more primitive progenitor cells: could not be detected
[1]
  apoptosis in CD34+CD38− acute leukemia stem population versus CD34+CD38+ progenitor population: more apoptosis
U937 [2]
  dose alone required for growth inhibition rate of 65.47%: 2.72 µM
U937 [3]
  apoptosis rate: ~5%
MKN45
  apoptosis: 6.2%
